Test results: PMC12656566, “Toxicokinetic Characterization of MDM Hydantoin via Stable Metabolite DMH: Population Modeling for Predicting Dermal Formaldehyde Formation” (Toxics, 2025)
Several values for one entry are separate records, joined by “and”; a condition that tells them apart may be missing. Identical values can stand only once. Like-named read-outs stand apart in the source and are kept apart here.

Test: Toxicokinetics after intravenous injection of MDMH or DMH (plasma, LC-MS/MS, non-compartmental analysis)
Assay type: in vivo
Conditions: rats; for half-life / clearance / Vd / AUC(0-t) / C0 / AUC(0-inf): male, Sprague-Dawley, rat; for half-life / clearance / Vd: plasma; for half-life: iv; for Vd: read-out: Vz; for AUC(0-inf): read-out: AUCinfinity
Method: An API 4000 LC-MS/MS system (Applied Biosystems/MDS Sciex, Foster City, CA, USA) coupled with an Agilent 1100 HPLC (Agilent Technologies, Santa Clara, CA, USA) was used for determination of MDMH and DMH in rat plasma. The analytes were separated on a Synergi Fusion-RP 80 Å (150 × 2.0 mm, i.d., 4 µm;) with a Security Guard™ Cartridge AJ0-7556 (Phenomenex, Torrance, CA, USA), and the column oven temperature was maintained at 30 °C. An isocratic solvent system of distilled water and methanol (80:20, v/v) was used with a runtime of 7 min. The injection volume was 10 µL, and the flow rate was maintained at 0.2 mL/min.
For plasma sample preparation, formic acid was immediately added to blood samples upon collection to achieve a final concentration of 0.5% to prevent potential enzymatic degradation of MDMH, and all sample preparation procedures were conducted at ≤4 °C to minimize temperature-dependent decomposition of the analytes. For analysis, 50 μL of internal standard solution and 100 μL of methanol containing 0.5% formic acid (as precipitating solvent) were added to 50 μL of plasma, followed by vortex-mixing for 2 min. After centrifugation at 21,206× g for 10 min, 40 μL of supernatant was mixed with 160 μL of 0.5% formic acid in distilled water, and 10 μL was injected into the LC-MS/MS system.
All animal care and experiments were conducted to evaluate the toxicokinetics of MDMH and DMH according to the Guidelines for the Care and Use of Animal approved by the Ethics Committee for Treatment of Laboratory Animal at Daegu Catholic University (CUD-2019-020). To evaluate the toxicokinetics of MDMH and DMH in rats after intravenous injection (IV) or transdermal application (TD). Male Sprague-Dawley rats (9 weeks, body weight 260–310 g) (Hyochang Science Co., Daegu, Republic of Korea) were kept in plastic cages and fed regularly with water and feed. Rats were acclimated for a minimum of 1 week prior to the experiment under conditions keeping a 12 h light-dark cycle, a temperature of 23 ± 2 °C, and a relative humidity of 50 ± 10%. The rats were cannulated using polyethylene tubing (0.58 mm i.d., 0.96 mm o.d., Natsume, Tokyo, Japan) in the jugular vein after intraperitoneal injection at a dose of 0.9 mL/kg of Zoletil 50 (Virbac, Carros, France).
For IV injection, MDMH or DMH was dissolved in distilled water, respectively, and the dose was 50 or 10 mg/kg, respectively. Blood samples were collected via the jugular vein in the MDMH administration group at 0, 0.5, 1, 1.5, 2, 2.5, 3, 5, 10, and 15 min and 1, 2, 4, 8, 12, and 24 h (16 points/head), and in the DMH administration group at 0, 2, 5, 10, 15, 30 min and 1, 2, 4, 8, 12, and 24 h (12 points/head). Plasma samples were harvested by centrifugation of obtained blood for 10 min at 4000× g, and stored at −20 °C until analysis.
The toxicokinetic parameters were calculated by standard non-compartmental analysis using the non-linear least squares regression program Phoenix™ WinNonlin® 6.1 (Pharsight, Cary, NC, USA).
The non-compartmental toxicokinetic parameters included terminal half-life (t1/2), area under the plasma concentration versus time curve from time zero to the last observation time point (AUClast) and to infinity (AUCinfinity), volume of distribution (Vz), and systemic clearance (CL). The maximum plasma concentration (Cmax) and the time to reach Cmax (Tmax) were obtained directly from the observed data. Absolute bioavailability (F) was estimated as the ratio of the dose-normalized AUCinfinity of MDMH and DMH following TD application compared to IV injection. The fraction metabolized (Fm) was calculated as the ratio of metabolite AUC to parent AUC after correction for molecular weight differences, accounting for the stoichiometric conversion relationship:(1) Fm=AUCDMH·MWMDMH/AUCMDMH·MWDMH where MWMDMH = 158.16 g/mol and MWDMH = 128.13 g/mol. […]

[1] = DMH in plasma after IV injection of DMH 10 mg/kg, n = 5
[2] = DMH after IV injection of DMH 10 mg/kg, n = 5
[3] = MDMH after IV injection of MDMH 50 mg/kg, n = 5
[4] = MDMH in plasma after IV injection of MDMH 50 mg/kg, n = 5

Structure (SMILES)	duration of initial distribution phase (alpha phase) (DMH after direct intravenous administration of DMH)	t1/2 [1] [h]	half-life (10 mg/kg, DMH after IV injection of DMH 10 mg/kg, read-out: t1/2 (hour equivalent)) [h]	half-life (10 mg/kg, DMH in plasma after IV injection of DMH 10 mg/kg, n = 5, read-out: t1/2) [h]	clearance [2] [mL/min/kg]	Vd [2] [L/kg]	AUC(0-t) [1] [ng·h/mL]	C0 [1] [µg/mL]	AUC(0-inf) [1] [ng·h/mL]	Fm to DMH (fraction of MDMH metabolized to DMH) (IV injection of MDMH 50 mg/kg, AUC ratio adjusted for molecular weight)	time until parent compound plasma concentrations reached below the quantification limit (MDMH after i.v. injection of MDMH) [min]	half-life (50 mg/kg, MDMH after IV injection of MDMH 50 mg/kg, read-out: t1/2 (hour equivalent)) [h]	half-life (50 mg/kg, MDMH in plasma after IV injection of MDMH 50 mg/kg, n = 5, mean ± S.D., read-out: t1/2) [h]	clearance [3] [mL/min/kg]	Vd [3] [L/kg]	AUC(0-t) [4] [ng·h/mL]	C0 [4] [µg/mL]	AUC(0-inf) [4] [ng·h/mL]
CC1(C)NC(=O)NC1=O [DMH, 5,5-dimethylhydantoin]	approximately 30 min	3.0212 ± 0.5513	3.02	3.02 ± 0.55	4	1 ± 0.47	47100 ± 29900	26.9 ± 18.3	55000 ± 36800									
CC1(C)C(=O)NC(=O)N1CO [MDMH, 1-(Hydroxymethyl)-5,5-dimethylhydantoin]										97.6 ± 9.6% and 97.59 ± 9.64%	≤ 5	0.007	0.00667 ± 0.00167	1570	0.84 ± 0.04	570 ± 190	77.9 ± 28.1	580 ± 180
